Patent US12497428B2, “Galactoside inhibitor of galectins” (GALECTO BIOTECH AB, priority 2018, dated 2025)
In brackets after ≈: the same amount, converted by molar mass.

Tests used:
galectins = conditions: cited from earlier work
Galectin-1 = Galectin-1 (Homo sapiens, UniProt P09382); assay: Fluorescence anisotropy assay, inhibition of galectin / fluorescein tagged saccharide probe interaction; type: binding
Description: (§1) The affinity of Example 1-28 for galectins were determined by a fluorescence anisotropy assay where the compound was used as an inhibitor of the interaction between galectin and a fluorescein tagged saccharide probe as described Sörme, P., Kahl-Knutsson, B., Huflejt, M., Nilsson, U. J., and Leffler H. (2004) Fluorescence polarization as an analytical tool to evaluate galectin-ligand interactions. Anal. Biochem. 334: 36-47, (Sörme et al., 2004) and Monovalent interactions of Galectin-1 By Salomonsson, Emma; Larumbe, Amaia; Tejler, Johan; Tullberg, Erik; Rydberg, Hanna; Sundin, Anders; Khabut, Areej; Frejd, Torbjorn; Lobsanov, Yuri D.; Rini, James M.; et al, From Biochemistry (2010), 49(44), 9518-9532, (Salomonsson et al., 2010).

Galectin-3 = Galectin-3 (Homo sapiens, UniProt P17931); assay: as above; type: binding
Galectin-3, sequence (P17931 whole entry): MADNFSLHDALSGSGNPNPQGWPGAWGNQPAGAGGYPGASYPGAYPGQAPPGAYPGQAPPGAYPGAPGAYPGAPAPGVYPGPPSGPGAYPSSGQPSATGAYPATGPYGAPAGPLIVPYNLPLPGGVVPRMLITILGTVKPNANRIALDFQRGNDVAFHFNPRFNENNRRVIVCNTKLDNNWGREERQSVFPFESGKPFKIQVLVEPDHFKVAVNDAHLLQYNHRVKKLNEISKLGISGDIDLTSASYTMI
Description: as §1

Aqueous solubility = type: physicochemical

Galectin-1, sequence (P09382 whole entry): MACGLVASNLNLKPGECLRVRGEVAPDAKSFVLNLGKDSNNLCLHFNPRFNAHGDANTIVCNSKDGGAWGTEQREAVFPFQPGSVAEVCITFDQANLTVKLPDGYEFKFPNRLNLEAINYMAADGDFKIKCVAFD

SMILES | affinity, times lower than lactose (galectins; relative to lactose) | Kd (Galectin-1) | Kd (Galectin-3) | solubility (Aqueous solubility) | Kd (galectins; all galectins)
O=C[C@H](O)[C@@H](O)[C@@H](O)[C@H](O)CO [D-galactose] | 50-100 times | – | – | – | –
O=C(O)CO[C@@H]1[C@@H](n2cc(-c3cc(F)c(Cl)c(F)c3)nn2)[C@@H](O)[C@@H](CO)O[C@@H]1Sc1ccc(Cl)c(Cl)c1 [Example 7, 3,4-Dichlorphenyl 2-O-carboxymethyl-3-[4-(4-chloro-3,5-difluorophenyl)-1H-1,2,3-triazol-1-yl]-3-deoxy-1-thio-α-D-galactopyranoside] | – | 2 µM | 0.0085 µM | 2000 µg/mL (≈ 3.35 mM) | –
CS(=O)(=O)NC(=O)COC1C(n2cc(-c3cc(F)c(Cl)c(F)c3)nn2)[C@@H](O)C(CO)O[C@@H]1Sc1ccc(Cl)c(Cl)c1 (stereo in doubt) [Example 9, 3,4-Dichlorphenyl 3-[4-(4-chloro-3,5-difluorophenyl)-1H-1,2,3-triazol-1-yl]-3-deoxy-2-O-[2-(methylsulfonamido)-2-oxoethyl]-1-thio-α-D-galactopyranoside] | – | 3 µM | 0.023 µM | 2900 µg/mL (≈ 4.3 mM) | –
OC[C@H]1O[C@@H](O[C@H]2[C@H](O)[C@@H](O)C(O)O[C@@H]2CO)[C@H](O)[C@@H](O)[C@H]1O (some centres unmarked) [lactose] | – | – | – | – | 500 to 1000 µM
